Entries after “also recorded” stand apart in the source; their conditions may differ. Marks after values point to notes of the source that are not given here.
Experiments:
[1] = biological target: T1, sEH (Homo sapiens, UniProt P34913); details: result in words
T1 sequence (P34913 1-555): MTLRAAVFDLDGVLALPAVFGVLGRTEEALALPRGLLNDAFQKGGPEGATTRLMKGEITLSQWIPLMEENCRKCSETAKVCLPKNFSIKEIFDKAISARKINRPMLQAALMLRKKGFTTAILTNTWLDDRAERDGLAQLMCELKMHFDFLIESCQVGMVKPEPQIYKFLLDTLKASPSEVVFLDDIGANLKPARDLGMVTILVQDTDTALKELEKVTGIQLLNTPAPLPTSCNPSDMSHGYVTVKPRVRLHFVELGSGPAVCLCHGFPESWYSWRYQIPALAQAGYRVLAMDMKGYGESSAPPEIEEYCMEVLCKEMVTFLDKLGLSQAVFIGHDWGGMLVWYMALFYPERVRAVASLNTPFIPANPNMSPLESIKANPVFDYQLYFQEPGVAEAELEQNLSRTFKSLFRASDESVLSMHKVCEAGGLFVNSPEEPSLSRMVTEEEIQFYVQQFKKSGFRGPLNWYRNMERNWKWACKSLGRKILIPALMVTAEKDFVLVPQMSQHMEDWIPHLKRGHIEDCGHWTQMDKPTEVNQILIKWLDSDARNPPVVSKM
Experimental: (§1) In brief, sEH was expressed in transfected Sf9-cells. Isolation of sEH from the cell pellet was conducted with a benzylthiosepharose matrix. […] The reaction was stopped with ZnSO4 (0.2 M) after 60 min incubation. […] Inhibitors were tested for self fluorescence. Positive controls were AUDA (12-(3-adamantan-1-yl-ureido)dodecanacid) and DCU (N,N'-dicyclohexylurea) at 10 µM.

[2] = biological target: T2, FLAP (Homo sapiens, UniProt P20292); details: active = inhibition of product formation in cells without 5-LOX activity in the cell-free assay
T2 sequence (P20292 1-161): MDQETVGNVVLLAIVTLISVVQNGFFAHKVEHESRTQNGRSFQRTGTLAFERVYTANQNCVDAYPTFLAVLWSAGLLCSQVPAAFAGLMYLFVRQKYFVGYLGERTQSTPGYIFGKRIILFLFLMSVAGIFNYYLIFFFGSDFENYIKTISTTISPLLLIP
Experimental: The enzyme was preincubated for 15 min with the potential inhibitor on ice and subsequently exposed to 2 mM CaCl2 and 20 µM AA for 10 min at 37°C.
Effect on 5-LOX product formation and sEH activity is determined as described above. In case of observed effect on 5-LOX product formation in the cellular assay, 5-LOX activity was investigated with isolated 5-LOX.

[3] = test system: 5-LOX product formation in PMNL; assay: 5-LOX product formation in PMNL stimulated with A23187 (cell-based); set-up: species or system human; details: for Effect on 5-LOX product formation in PMNL: result in words; for inhibition at 1 µM: read-out: Effect on 5-LOX product formation in PMNL, % inhibition
Experimental: Briefly, first a cell-based assay allows to determine the inhibition of the 5-LOX product biosynthesis. The cell suspension contained human neutrophils (PMNL) or monocytes, wherein the cells were isolated from buffy coats obtained from healthy donors pooled by gender. An aliquot cell suspension was incubated with the candidate compound for 15 min at 37 °C. The cells are treated with calcium ionophore A23187 to stimulate 5-LOX product formation for further 10 min (37 °C), optionally in presence of various concentrations of AA. The reaction was stopped with 1 mL methanol on ice.
In both assays, product quantification was conducted with RP-HPLC and UV detection after solid phase extraction and addition of 200 ng prostaglandin B1 as internal standard.

[4] = biological target: T1, sEH; assay: biochemical; details: for inhibition at 0.1 µM / inhibition at 1 µM: read-out: Effect on sEH activity, % inhibition
Experimental: as §1

[5] = test system: leukotriene mediated peritonitis; assay: Zymosan-induced peritonitis model in mice; type: in vivo, CD1 male mice; details: intraperitoneal, 30 min prior to zymosan
Experimental: Compound I-12 was evaluated in vivo in a peritonitis model in mice. The experimental protocols were approved by the Animal Care Committee of the University of Naples Federico II, in compliance with Italian regulations on protection of animals used for experimental and other scientific purpose (Ministerial Decree 116/92) as well as with the European Economic Community regulations (Official Journal of E.C. L 358/1 12/18/1986); protocol number: 2014/0018760 27th February 2014. CD1 male mice with an age of six to eight weeks were investigated. The leukotriene mediated peritonitis is induced by injection of 1 mg zymosan in 50 µl saline solution. 30 min prior to induction, the candidate compound was applied as intraperitoneal injection in different concentrations as well as DMSO as negative control and positive controls (MK886, zileuton). Results are given in Table 3, wherein […] and LTB 4 levels are measured as well as vascular permeability (VP) and the cell recruitment in the peritoneal cavity (Cell Rec). Table 3: Results from an in vivo study with a mouse peritonitis model
In Table 3, values in percent indicate the percent inhibition in respect to the vehicle control. Statistical significance is determined via ANOVA Bonferroni, wherein * indicates p<0.05; ** indicates p<0.01; *** indicates p<0.001 vs. vehicle. N indicates the number of investigated mice.

SMILES	Effect on sEH activity [1]	Effect on FLAP activity [2]	Effect on 5-LOX product formation in PMNL [3]	inhibition at 0.1 µM [4]	also measured
CCn1c(COc2ccc3ccccc3c2)nc2ccccc21 [Compound I12-1, reference compound]	inactive	inactive	inactive		
Cc1cc(OCc2nc3ccccc3s2)ccc1NC(=O)NC1CCCCC1 [Compound I12-2, N-[4-(2-benzothiazolylmethoxy)-2-methylphenyl]-N'-cyclohexyl-urea, reference compound]		did not show an effect; also recorded: inactive	did not show an effect; also recorded: inactive	75%	
Cc1cccc(NC(=O)Nc2ccc(OCc3nc4ccccc4s3)cc2C)c1 [Compound I12-3]		active		55%	inhibition at 1 µM ([3]; Homo sapiens, PMNL): 100%
Cc1cc(OCc2nc3ccccc3s2)ccc1NC(=O)Nc1cccc2ccccc12 [Compound I12-4]	inactive	active			inhibition at 1 µM ([3]; Homo sapiens, PMNL): 70%
Cc1cc(OCc2nc3ccccc3s2)ccc1NC(=O)c1cccc(F)c1 [Compound I12-5, reference compound]	inactive	inactive	inactive		
Cc1cc(OCc2nc3ccccc3s2)ccc1NC(=O)COc1ccc(Cl)cc1Cl [Compound I12-6, reference compound]	inactive	inactive	inactive		
CCNC(=O)Nc1ccc(OCc2nc3ccccc3s2)cc1C [Compound I12-7, reference compound]	inactive	inactive	inactive		
COc1cc(/C=N/NC(=O)c2ccc(CSc3nc4ccccc4s3)o2)cc(Br)c1O [Compound I12-8, reference compound]		inactive	inactive	30%	
CSc1ccc(N/N=C/c2nc3ccccc3s2)cc1 [Compound I12-9, reference compound]	inactive	inactive	inactive		
CC(C)c1ccc(OCc2nc3ccccc3[nH]2)cc1 [Compound I12-10, reference compound]	inactive	inactive	inactive		
Cc1cccc(OCC(=O)Nc2ccc(OCc3nc4ccccc4s3)cc2C)c1 [Compound I12-11, reference compound]	did not show sEH inhibition; also recorded: inactive	active			inhibition at 1 µM ([3]; Homo sapiens, PMNL): 97%
Cc1cc(OCc2nc3ccccc3s2)ccc1NC(=O)c1ccc(Cl)cc1 [Compound I12-12, reference compound]	inactive	inactive	inactive		
Cc1cccc(OCc2nc3ccccc3s2)c1C [Compound I12-13, reference compound]	inactive	inactive	inactive		
COc1cccc(NC(=O)Nc2ccc(CCc3nc4ccccc4[nH]3)cc2)c1 [Compound L1]		inactive	inactive	30%	
O=C(Nc1ccc(CCc2nc3ccccc3[nH]2)cc1)Nc1cccc(Cl)c1 [Compound L2]		inactive	inactive	50%	
O=C(Nc1ccccc1)Nc1ccc(CCc2nc3ccccc3[nH]2)cc1 [Compound L3]		inactive	inactive	30%	
O=C(Nc1ccc(Cl)cc1)Nc1ccc(CCc2nc3ccccc3[nH]2)cc1 [Compound L4]		inactive	inactive	78%	
COc1ccc(NC(=O)Nc2ccc(CCc3nc4ccccc4[nH]3)cc2)cc1 [Compound L5]		inactive	inactive	50%	
O=C(Nc1ccc(F)cc1)Nc1ccc(CCc2nc3ccccc3[nH]2)cc1 [Compound L6]		inactive	inactive	55%	
Cn1c(CCc2ccc(NC(=O)Nc3cccc(Cl)c3)cc2)nc2ccccc21 [Compound L8]		inactive	inactive	65%	
Cc1cc(OCc2nc3ccccc3[nH]2)ccc1NC(=O)Nc1ccc(Cl)c(Cl)c1 [EZ14, N-[4-(1H-Benzimidazol-2-ylmethoxy)-2-methylphenyl]-N'-(3,4-dichlorophenyl)-urea]					IC50 [4]: 55 nM; IC50 ([3]; Homo sapiens, PMNL, read-out: Effect on 5-LOX product formation in PMNL, IC50): 770 nM
CC(C)c1ccc2c(c1)c(SC(C)(C)C)c(CC(C)(C)C(=O)O)n2Cc1ccc(Cl)cc1 [MK886, reference compound]					Cell Rec (cell recruitment in the peritoneal cavity) ([5]; 1 mg): 4.54±0.326 10^6/ml; Cell Rec, percent inhibition in respect to the vehicle control ([5]; 1 mg): 41%***; LTB4 ([5]; 1 mg): 258 ± 48 pg/mL; LTB4, percent inhibition in respect to the vehicle control ([5]; 1 mg): 63%**; LTC4 ([5]; 1 mg): 24.2 ± 2.98 ng/mL; LTC4, percent inhibition in respect to the vehicle control ([5]; 1 mg): 73%***; VP (vascular permeability) ([5]; 3 mg): 0.303±0.018 abs 610 nm; VP, percent inhibition in respect to the vehicle control ([5]; 3 mg): 51%
Cc1cc(OCc2nc3ccccc3o2)ccc1NC(=O)Nc1ccc(Cl)c(Cl)c1 [SE04, N-[4-(2-Benzoxazolylmethoxy)-2-methylphenyl]-N'-(3,4-dichlorophenyl)-urea]					inhibition at 1 µM [4]: ~87%; inhibition at 1 µM ([3]; Homo sapiens, PMNL): ~85%
O=C(Nc1ccc(OCc2nc3ccccc3o2)cc1)Nc1ccc(Cl)c(Cl)c1 [TS04]		inactive	inactive		inhibition at 1 µM [4]: ~96%
CC(c1cc2ccccc2s1)N(O)C(N)=O (stereo not drawn) [ZIL, zileuton, reference compound]					LTC4 ([5]; 10 mg): 56.5 ± 4.58 ng/mL; LTC4, percent inhibition in respect to the vehicle control ([5]; 10 mg): 36%*; VP (vascular permeability) ([5]; 10 mg): 0.639±0.104 abs 610 nm
